Experimental data: patent US20250268923A1, “APPLICATION OF TETRACYCLINE COMPOUND IN TREATMENT OF TUMOR” (NANJING SHIJIANG MEDICINE TECHNOLOGY CO., LTD, priority 2021, published 2025)

Tests used:
Type in all cases: cell-based
[1] = system: GB-1 (human glioblastoma cell); experiment: Cell viability (CellTiter-Glo), GB-1; conditions: insensitive group, 3-4 days of culture, n=3, read-out: Tigecycline IC50
Method: (§1) The inhibitory effect of tigecycline on various tumor cell lines was detected using cell activity detection reagent.
(§2) Cell viability was detected using the Promega CellTiter-Glo kit, cell viability was determined by directly measuring intracellular ATP content. In the experiment, the IC50 value of tigecycline on various tumor cell lines was determined.
(§3) Each tumor cell was cultured separately in relevant medium (+p/s), and was incubated for 3 h, then the gradient diluted tigecycline was added. After 3-4 days of culture, the relevant IC50 (50% inhibiting concentration) was measured (n=3). The name, source and culture conditions of each tumor cell line were as follows:
Cell line GB-1 (JCRB, No. IFO050489) was cultured in 10% fetal bovine serum-containing DMEM medium (+P/S).

[2] = system: 786-O (clear cell renal cell adenocarcinoma cell); experiment: Cell viability (CellTiter-Glo), 786-O; conditions: Homo sapiens, 786-0, insensitive group, 3-4 days of culture, n=3, read-out: Tigecycline IC50
Method: as §1, §2, §3
Cell line 786-0 (ATCC, No. CRL-1932) was cultured in 10% fetal bovine serum-containing RPMI1640 medium (+P/S).

[3] = system: SF-126 (human glioblastoma multiforme cell); experiment: Cell viability (CellTiter-Glo), SF-126; conditions: insensitive group, 3-4 days of culture, n=3, read-out: Tigecycline IC50
Method: as §1, §2, §3
Cell line SF126 (JCRB. No. IFO50286) was cultured in 10% fetal bovine serum-containing EMEM medium (+P/S).

[4] = system: MDA-MB-453 (breast cancer cell); experiment: Cell viability (CellTiter-Glo), MDA-MB-453; conditions: Homo sapiens, sensitive group, 3-4 days of culture, n=3, read-out: Tigecycline IC50
Method: as §1, §2, §3
Cell line MDA-MB-453 (ATCC, No. HTB-131) was cultured in 10% fetal bovine serum-containing Leibovitz's L-15 medium (+P/S).

[5] = system: NCI-H82 (human small cell lung cancer cell); experiment: Cell viability (CellTiter-Glo), NCI-H82; conditions: sensitive group, 3-4 days of culture, n=3, read-out: Tigecycline IC50
Method: as §1, §2, §3
Cell line NCI-H82 (ATCC, No. HTB-175) was cultured in 10% fetal bovine serum-containing RPMI1640 medium (+P/S).

[6] = system: G-401 (human renal carcinoma Wilms cell); experiment: Cell viability (CellTiter-Glo), G-401; conditions: sensitive group, 3-4 days of culture, n=3, read-out: Tigecycline IC50
Method: as §1, §2, §3
Cell line G-401 (ATCC, No. CRL-1441) was cultured in 10% fetal bovine serum-containing McCoy's 5a medium (+P/S).

[7] = system: SW48 (human colon adenocarcinoma cell); experiment: Cell viability (CellTiter-Glo), SW48; conditions: sensitive group, 3-4 days of culture, n=3, read-out: Tigecycline IC50
Method: as §1, §2, §3
Cell line SW48 (ATCC, No. CCL-231) was cultured in 10% fetal bovine serum-containing Leibovitz's L-15 medium (+P/S).

[8] = system: CFPAC-1 (human pancreatic cancer cell); experiment: Cell viability (CellTiter-Glo), CFPAC-1; conditions: insensitive group, 3-4 days of culture, n=3, read-out: Tigecycline IC50
Method: as §1, §2, §3
Cell line CFPAC-1 (ATCC, No. CRL-1918) was cultured in 10% fetal bovine serum-containing IMDM medium (+P/S).

[9] = system: NCI-H82 (ov-NNMT) cell (NNMT protein-overexpressing); experiment: Cell viability (CellTiter-Glo), NNMT-overexpressing NCI-H82; conditions: Homo sapiens, NNMT gene inserted by viral vector, n=3, read-out: IC50 value of tigecycline on NNMT protein-overexpressing NCI-H82 cell (NCI-H82 (ov-NNMT))
Excerpt: (§4) The NNMT protein-overexpressing NCI-H82 cell (NCI-H82 (ov-NNMT)) was obtained by inserting the NNMT gene into NCI-H82 cell using a viral vector. The control NCI-H82 cell (NCI-H82 (Con)) was obtained by transfecting NCI-H82 cell with empty virus vector without carrying NNMT gene.
(§5) The expressing level of NNMT protein in control NCI-H82 cell (NCI-H82 (Con)) and NNMT protein-overexpressing NCI-H82 cell (NCI-H82 (ov-NNMT)) was detected using Western Blot assay (as shown in FIG. 7), it could be seen from FIG. 7 that the NNMT protein in NCI-H82 (ov-NNMT) cell was overexpressed compared with the expression level of NNMT protein in NCI-H82 (Con) cell.
(§6) The IC50 value of tigecycline on control NCI-H82 cell (NCI-H82 (Con)) and NNMT protein-overexpressing NCI-H82 cell (NCI-H82 (ov-NNMT)) was determined using Promega CellTiter-Glo kit which detected cell viability by directly measuring intracellular ATP content (n=3), the experiment result was shown in Table 4 below: […]

[10] = system: NCI-H82 (Con) cell (transfected with empty virus vector); experiment: Cell viability (CellTiter-Glo), control NCI-H82 (Con); conditions: Homo sapiens, n=3, read-out: IC50 value of tigecycline on control NCI-H82 cell (NCI-H82 (Con))
Excerpt: as §4, §5, §6

[11] = system: WSU-DLCL2 (human diffuse large B-cell lymphoma); experiment: Cell viability (CellTiter-Glo), WSU-DLCL2; conditions: WSUDLCL2, sensitive group, 3-4 days of culture, n=3, read-out: Tigecycline IC50
Method: as §1, §2, §3
Cell line WSU-DLCL2 (DSMZ, No. ACC-575) was cultured in 10% fetal bovine serum-containing RPMI1640 medium (+P/S).

SMILES: CN(C)c1cc(NC(=O)CNC(C)(C)C)c(O)c2c1C[C@H]1C[C@H]3[C@H](N(C)C)C(O)=C(C(N)=O)C(=O)[C@@]3(O)C(O)=C1C2=O [Tigecycline, tigecycline]
- IC50 [1]: 18.5 µM
- IC50 [2]: 26.9 µM
- IC50 [3]: 26.3 µM
- IC50 [4]: 5.05 µM
- IC50 [5]: 0.79 µM
- IC50 [6]: 4.04 µM
- IC50 [7]: 6.31 µM
- IC50 [8]: 24.8 µM
- IC50 [9]: 2.31 µM
- IC50 [10]: 0.75 µM
- IC50 [11]: 1.36 µM
